Measurements from patent US8609712B2, “Purification of progesterone receptor modulators” (Wyeth LLC, priority 0205, dated 2013).
≈ marks a conversion by molar mass, not a printed value. Blank lines part the entries; values can stand above or below the molecule they belong to.

What was measured:
[1] = Solubility of the isolated salt in NMP / DMPU; format: physicochemical
Procedure: 6-Bromo-4,4-dimethyl-benzoxazine-2-one (2.59 g) was dissolved in THF (50 mL) at ambient temperature followed by addition of sodium tert-butoxide (0.96 g). The mixture was gently heated until a solution was obtained.
Similarly, 6-bromo-4,4-dimethyl-benzoxazine-2-one (2.55 g) was reacted with lithium tert-butoxide (10 mL of 1M solution in THF).

physchem = conditions: organic solvent or mixture
Solubility in DMF = conditions: solvent DMF

solubility in N-methylpyrrolidone (NMP) and dimethylpyrimidone (DMPU) ([1]; solvents heated to about 40 to about 50° C.): soluble
Molecule: CC1(C)OC(=O)Nc2ccc(Br)cc21.[Na] [6-Bromo-4,4-Dimethyl-Benzoxazine-2-One Sodium Salt]

solubility in dimethylpyrimidone (DMPU) ([1]; without heating): soluble
Molecule: CC1(C)OC(=O)Nc2ccc(Br)cc21.[Li] [6-Bromo-4,4-Dimethyl-Benzoxazine-2-One Lithium Salt]

solubility (physchem): 3000 µg/mL (≈ 9.11 mM)
Molecule: Cn1c(C#N)ccc1-c1ccc2c(c1)C1(CCCCC1)C(=NC#N)N2 [5′-(5-Cyano-1-methyl-1H-pyrrol-2-yl)spiro[cyclohexane-1,3′-[3H]indol]-2′-ylidenecyanamide]

Molecule: 5′-(5-cyano-1-methyl-1H-pyrrol-2-yl)spiro[cyclohexane-1,3′-[3H]indol]-2′-ylidenecyanamide choline salt
solubility in DMF (Solubility in DMF): 11000 µg/mL
